Holding throughout (format): cell-based
For test [1], the system named is K. pneumoniae ATCC 700603 strain producing SHV 18 ESBL. Description: MIC by agar dilution (CLSI). Particulars: Klebsiella pneumoniae. How it is done:
The efficacy of compositions and methods in treating or controlling bacterial infections was studied. In a typical study, overnight grown bacterial cultures were diluted appropriately and inoculated on the agar media containing doubling dilutions of the antibiotic. Observation for growth or no growth was performed after 16-20 hours of incubation at 35±2° C. in ambient air. The overall procedure was performed as per Clinical and Laboratory Standards Institute (CLSI) recommendations (Clinical and Laboratory Standards Institute (CLSI), performance Standards for Antimicrobial Susceptibility Testing, 20th Informational Supplement, M 100-S20, Volume 30, No. 1, 2010).

The test system is the same in test [2]. As to the kind of experiment: Cidal activity (bacterial count over time). Particulars: for Bacterial count: concentrations in label.
Test [3] has as its system K. pneumoniae B 43 strain producing SHV and TEM ESBLs. Description: Cidal activity (bacterial count over time). Particulars: concentrations in label.
Setting [4] is: Table 2, 2 hours, initial count 6.65 log CFU/ml.
[5] abbreviates: Table 2, 6 hours, initial count 6.65 log CFU/ml.
Where [6] appears, read: Table 2, 8 hours, initial count 6.65 log CFU/ml.
The mark [7] stands for this setting: Table 3, 2 hours, initial count 7.04 log CFU/ml.
Setting [8] is: Table 3, 6 hours, initial count 7.04 log CFU/ml.
Where [9] appears, read: Table 3, 8 hours, initial count 7.04 log CFU/ml.
Where [10] appears, read: Table 4, 2 hours, initial count 7.43 log CFU/ml.
Where [11] appears, read: Table 4, 4 hours, initial count 7.43 log CFU/ml.
[12] abbreviates: Table 4, 8 hours, initial count 7.43 log CFU/ml.
Where [13] appears, read: Table 5, 2 hours, initial count log 7.43 CFU/ml.
[14] abbreviates: Table 5, 4 hours, initial count log 7.43 CFU/ml.
Setting [15] is: Table 5, 8 hours, initial count log 7.43 CFU/ml.
Setting [16] is: Table 6, 2 hours, initial count 7.27 log CFU/ml.
Setting [17] is: Table 6, 4 hours, initial count 7.27 log CFU/ml.
Setting [18] is: Table 6, 8 hours, initial count 7.27 log CFU/ml.
Setting [19] is: Table 7, 2 hours, initial count 7.27 log CFU/ml.
Where [20] appears, read: Table 7, 4 hours, initial count 7.27 log CFU/ml.
The mark [21] stands for this setting: Table 7, 8 hours, initial count 7.27 log CFU/ml.

Like-named read-outs stand apart in the source and are kept apart here.

Take `CC1(C)S[C@@H]2[C@H](NC(=O)[C@H](N)c3ccc(O)cc3)C(=O)N2[C@H]1C(=O)O` [Amoxicillin, amoxicillin]: the minimal inhibitory concentration (MIC) in test [1] (ATCC700603, amoxicillin alone or with fixed concentration of partner(s) named in the label, read-out: MIC of Amoxicillin) was above 64 µg/mL. The Bacterial count is listed as 7.84 Log CFU/ml in test [2] (setting [4]); 8.5 Log CFU/ml in test [2] (setting [5]); 9 Log CFU/ml in test [2] (setting [6]); 7.8 Log CFU/ml in test [3] (setting [7]); 8.8 Log CFU/ml in test [3] (setting [8]); 9 Log CFU/ml in test [3] (setting [9]). In test [2] (Table 2), the “antibacterial activity (growth in presence of drug alone)” value (“antibacterial activity” below) was “no antibacterial activity”.
Take `C=CC1=C(C(=O)O)N2C(=O)[C@@H](NC(=O)/C(=N\OCC(=O)O)c3csc(N)n3)[C@H]2SC1` [Cefixime (2 mcg/ml), cefixime]: the Bacterial count came out at 8.11 Log CFU/ml in test [2] (setting [10]); 8.30 Log CFU/ml in test [2] (setting [11]); 9 Log CFU/ml in test [2] (setting [12]); 8.16 Log CFU/ml in test [3] (setting [13]); 8.47 Log CFU/ml in test [3] (setting [14]); 8.84 Log CFU/ml in test [3] (setting [15]).
For the compound `COCC1=C(C(=O)O)N2C(=O)[C@@H](NC(=O)/C(=N\OC)c3csc(N)n3)[C@H]2SC1` [Cefpodoxime (2 mcg/ml), cefpodoxime], the Bacterial count in test [2] (setting [16]) came to 8.54 Log CFU/ml; in test [2] (setting [17]), 9 Log CFU/ml; in test [2] (setting [18]), 9 Log CFU/ml.
In the case of `CO/N=C(\C(=O)N[C@@H]1C(=O)N2C(C(=O)O)=C(COC(N)=O)CS[C@H]12)c1ccco1` [Cefuroxime (2 mcg/ml), cefuroxime], the figures for the Bacterial count in test [2] (setting [19]), in test [2] (setting [20]) and in test [2] (setting [21]) were 8.77 Log CFU/ml, 8.90 Log CFU/ml and 9 Log CFU/ml, respectively.
Consider `O=C(O)[C@H]1/C(=C/CO)O[C@@H]2CC(=O)N21` [Clavulanic acid, clavulanic acid], for which the MIC in test [1] (ATCC700603, read-out: MIC value when used alone) was above 64 µg/mL. For the same compound, the Bacterial count in test [2] (setting [4]) is on record as 8.1 Log CFU/ml; in test [2] (setting [5]), 8.8 Log CFU/ml; in test [2] (setting [6]), 9 Log CFU/ml; in test [2] (setting [10]) it was 8.4 Log CFU/ml; in test [2] (setting [11]), 8.65 Log CFU/ml; in test [2] (setting [12]) it was 8.9 Log CFU/ml. In addition, the Bacterial count in test [2] (setting [16]) stood at 8.47 Log CFU/ml; in test [2] (setting [17]), 9.09 Log CFU/ml; in test [2] (setting [18]), 9.09 Log CFU/ml; in test [2] (setting [19]), 8.47 Log CFU/ml; in test [2] (setting [20]) it was 9.09 Log CFU/ml; in test [2] (setting [21]), 9.09 Log CFU/ml. Besides, the Bacterial count in test [3] (setting [7]) amounted to 8.1 Log CFU/ml; in test [3] (setting [8]) it was 8.7 Log CFU/ml; in test [3] (setting [9]), 9 Log CFU/ml; in test [3] (setting [13]), 8.1 Log CFU/ml; in test [3] (setting [14]) it was 8.56 Log CFU/ml; in test [3] (setting [15]) it was 8.85 Log CFU/ml. For the same compound, in test [2] (Table 2), the “antibacterial activity” value was “no antibacterial activity”.
For the compound `C[C@@H](O)[C@H]1C(=O)N2C(C(=O)O)=C(SCCN=CN)C[C@H]12` [Imipenem, imipenem], the Bacterial count is 5.32 Log CFU/ml in test [2] (setting [4]); 2.6 Log CFU/ml in test [2] (setting [5]); 2.0 Log CFU/ml in test [2] (setting [6]); 4.87 Log CFU/ml in test [2] (setting [10]); 3.39 Log CFU/ml in test [2] (setting [11]); 2.84 Log CFU/ml in test [2] (setting [12]). Besides, the Bacterial count in test [2] (setting [16]) was 5.32 Log CFU/ml; in test [2] (setting [17]), 3.84 Log CFU/ml; in test [2] (setting [18]) it was 2.32 Log CFU/ml; in test [2] (setting [19]), 5.32 Log CFU/ml; in test [2] (setting [20]) it was 3.84 Log CFU/ml; in test [2] (setting [21]) it was 2.32 Log CFU/ml. For the same compound, the Bacterial count in test [3] (setting [7]) stood at 5.4 Log CFU/ml; in test [3] (setting [8]), 3.9 Log CFU/ml; in test [3] (setting [9]) it was 3.8 Log CFU/ml; in test [3] (setting [13]), 6.37 Log CFU/ml; in test [3] (setting [14]), 5.69 Log CFU/ml; in test [3] (setting [15]), 6.60 Log CFU/ml.
With `CC1(C)S[C@@H]2[C@H](/N=C/N3CCCCCC3)C(=O)N2[C@H]1C(=O)O` [Mecillinam, mecillinam], the MIC in test [1] (ATCC700603, agent used alone, read-out: MIC value when used alone) was above 64 µg/mL. In addition, the Bacterial count came to 7.47 Log CFU/ml in test [2] (setting [4]); 8.23 Log CFU/ml in test [2] (setting [5]); 9.1 Log CFU/ml in test [2] (setting [6]); 7.95 Log CFU/ml in test [2] (setting [10]); 8.33 Log CFU/ml in test [2] (setting [11]); 8.90 Log CFU/ml in test [2] (setting [12]). The Bacterial count in test [2] (setting [16]) stood at 8.23 Log CFU/ml; in test [2] (setting [17]) it was 8.74 Log CFU/ml; in test [2] (setting [18]) it was 9.47 Log CFU/ml; in test [2] (setting [19]), 8.23 Log CFU/ml; in test [2] (setting [20]), 8.74 Log CFU/ml; in test [2] (setting [21]), 9.47 Log CFU/ml. Further, the Bacterial count came out at 7.74 Log CFU/ml in test [3] (setting [7]); 8.69 Log CFU/ml in test [3] (setting [8]); 8.89 Log CFU/ml in test [3] (setting [9]); 8.39 Log CFU/ml in test [3] (setting [13]); 8.60 Log CFU/ml in test [3] (setting [14]); 8.90 Log CFU/ml in test [3] (setting [15]). The “antibacterial activity” value in test [2] (Table 2) is on record as “no antibacterial activity”.

These data come from patent publication US20150258072A1, “Antibacterial compositions” (WOCKHARDT LIMITED, priority 2012, published 2015).
